Values joined by “and” are separate entries in the source; they are usually repeats but may differ in a detail not shown here. Equal values may be shown once. Inconclusive results and toxic doses are left out.

This assay has as its system BDF1 mice, P388 leukemia ip, median survival T/C. Description: NCI In Vivo Anticancer Drug Screen. Data for tumor model P388 Leukemia (intraperitoneal) in B6D2F1 (BDF1) mice. The conditions noted are these: endpoint: median survival time, higher = longer survival. In short, it runs like this:
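Transplantable tumour in mice; compound vs vehicle dosing; survival scored; ratio of treated to control reported.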

[1] abbreviates: dose: 50.0 mg/kg/injection, schedule: Q01DX009 (ip), vehicle: saline with Tween-80.
Where [2] appears, read: dose: 100.0 mg/kg/injection, schedule: Q01DX009 (ip), vehicle: saline with Tween-80.
Setting [3] is: dose: 200.0 mg/kg/injection, schedule: Q01DX009 (ip), vehicle: saline with Tween-80.
Setting [4] is: dose: 6.25 mg/kg/injection, schedule: Q01DX009 (ip), vehicle: saline.
The mark [5] stands for this setting: dose: 25.0 mg/kg/injection, schedule: Q01DX001 (ip), vehicle: Klucel (hydroxypropylcellulose) (HPC).
Setting [6] is: dose: 50.0 mg/kg/injection, schedule: Q01DX001 (ip), vehicle: Klucel (hydroxypropylcellulose) (HPC).

For `O=C(N[C@@H](c1ccccc1)[C@H](N=Cc1ccccc1)c1ccccc1)c1ccccc1`, the T/C runs as follows: (dose: 50.0 mg/kg/injection, schedule: Q01DX009 (ip), vehicle: saline) 102 % of control; (dose: 50.0 mg/kg/injection, schedule: Q04DX003 (ip), vehicle: saline) 91 % of control; (dose: 100.0 mg/kg/injection, schedule: Q01DX009 (ip), vehicle: saline) 100 % of control; (dose: 100.0 mg/kg/injection, schedule: Q04DX003 (ip), vehicle: saline) 92 % of control; (dose: 200.0 mg/kg/injection, schedule: Q01DX009 (ip), vehicle: saline) 91 % of control; (dose: 200.0 mg/kg/injection, schedule: Q04DX003 (ip), vehicle: saline) 91 % of control. The T/C (dose: 400.0 mg/kg/injection, schedule: Q01DX009 (ip), vehicle: saline) is 94 % of control and the T/C (dose: 400.0 mg/kg/injection, schedule: Q04DX003 (ip), vehicle: saline) is 90 % of control.

Regarding `N#Cc1sc2ccccc2c1CBr`, the T/C by setting is: (dose: 12.5 mg/kg/injection, schedule: Q01DX009 (ip), vehicle: Klucel (hydroxypropylcellulose) (HPC)) 104 % of control; (dose: 18.75 mg/kg/injection, schedule: Q04DX003 (ip), vehicle: Klucel (hydroxypropylcellulose) (HPC)) 108 % of control; (dose: 25.0 mg/kg/injection, schedule: Q01DX009 (ip), vehicle: Klucel (hydroxypropylcellulose) (HPC)) 108 % of control; (dose: 37.5 mg/kg/injection, schedule: Q04DX003 (ip), vehicle: Klucel (hydroxypropylcellulose) (HPC)) 108 % of control.

Consider `O=C(Cl)C1C2CC1C(Cl)C2Cl` (stereo not given), for which the T/C under setting [1] was 103 % of control, the T/C under setting [2] is 108 % of control and the T/C under setting [3] was 107 % of control.

For `CC(=O)NCCN=Cc1ccccc1`, the T/C reads like this: under setting [2], 112 % of control; under setting [3], 120 % of control.

Regarding `CCCCCCCCCCCC[n+]1cccc2ccccc21`, the T/C runs as follows: (dose: 0.15 mg/kg/injection, schedule: Q01DX009 (ip), vehicle: saline) 100 % of control; (dose: 0.17 mg/kg/injection, schedule: Q04DX003 (ip), vehicle: saline) 118 % of control; (dose: 0.34 mg/kg/injection, schedule: Q01DX009 (ip), vehicle: saline) 90 % of control and 122 % of control; (dose: 0.35 mg/kg/injection, schedule: Q01DX009 (ip), vehicle: saline) 163 % of control; (dose: 0.35 mg/kg/injection, schedule: Q04DX003 (ip), vehicle: saline) 122 % of control; (dose: 0.7 mg/kg/injection, schedule: Q01DX009 (ip), vehicle: saline) 157 % of control. The T/C (dose: 0.7 mg/kg/injection, schedule: Q04DX003 (ip), vehicle: saline) was 118 % of control.

`ClCCCN1CCCCC1CCl` (stereo not given): the T/C (dose: 3.12 mg/kg/injection, schedule: Q04DX003 (ip), vehicle: saline) was 102 % of control; the T/C under setting [4] is 242 % of control; the T/C (dose: 12.5 mg/kg/injection, schedule: Q01DX009 (ip), vehicle: saline) is 254 % of control and 96 % of control; the T/C (dose: 12.5 mg/kg/injection, schedule: Q04DX003 (ip), vehicle: saline) was 151 % of control; the T/C (dose: 25.0 mg/kg/injection, schedule: Q04DX003 (ip), vehicle: saline) was 236 % of control and 182 % of control; the T/C (dose: 40.0 mg/kg/injection, schedule: Q04DX003 (ip), vehicle: saline) is 90 % of control.

In the case of `c1cc[c]([Sn]([c]2ccccc2)([c]2ccccc2)[c]2ccccc2)cc1`, the T/C reads like this: under setting [2], 94 % of control; under setting [3], 94 % of control; (dose: 400.0 mg/kg/injection, schedule: Q01DX009 (ip), vehicle: saline with Tween-80) 97 % of control.

For the compound `Cc1nnc2c(=S)[nH]ccn12`, the T/C runs as follows: (dose: 100.0 mg/kg/injection, schedule: Q01DX001 (ip), vehicle: saline with Tween-80) 113 % of control; (dose: 200.0 mg/kg/injection, schedule: Q01DX001 (ip), vehicle: saline with Tween-80) 106 % of control; (dose: 400.0 mg/kg/injection, schedule: Q01DX001 (ip), vehicle: saline with Tween-80) 100 % of control.

For `Cn1cnc([N+](=O)[O-])c1Sc1nc(N)nc2nc[nH]c12`, the T/C is, setting by setting: (dose: 7.0 mg/kg/injection, schedule: Q01DX009 (ip), vehicle: saline with Tween-80) 190 % of control; (dose: 11.0 mg/kg/injection, schedule: Q01DX009 (ip), vehicle: saline with Tween-80) 190 % of control; (dose: 16.5 mg/kg/injection, schedule: Q01DX009 (ip), vehicle: saline with Tween-80) 96 % of control.

With `O=C1NN=C(c2ccc(Cl)cc2)CS1`, the T/C under setting [1] is 103 % of control and the T/C under setting [2] was 103 % of control.

As to `CCN(c1ccccc1)c1cc2c(cc1[N+](=O)[O-])no[n+]2[O-]`, the T/C runs as follows: (dose: 30.0 mg/kg/injection, schedule: Q01DX009 (ip), vehicle: saline with Tween-80) 123 % of control; (dose: 60.0 mg/kg/injection, schedule: Q01DX009 (ip), vehicle: saline with Tween-80) 113 % of control.

Take `Cc1[nH]c2cc(Br)ccc2c1/C=N/NC(N)=S`: the T/C under setting [5] is 107 % of control; the T/C under setting [6] is 102 % of control; the T/C (dose: 100.0 mg/kg/injection, schedule: Q01DX001 (ip), vehicle: Klucel (hydroxypropylcellulose) (HPC)) is 103 % of control.

As to `CCC[CH2][Hg][O]C(C)=O`, the T/C by setting is: (dose: 3.13 mg/kg/injection, schedule: Q01DX009 (ip), vehicle: saline with Tween-80) 115 % of control; (dose: 3.13 mg/kg/injection, schedule: Q04DX003 (ip), vehicle: saline sonified) 110 % of control; (dose: 4.16 mg/kg/injection, schedule: Q01DX009 (ip), vehicle: saline) 114 % of control; under setting [4], 114 % of control; (dose: 6.25 mg/kg/injection, schedule: Q04DX003 (ip), vehicle: saline sonified) 120 % of control; (dose: 8.25 mg/kg/injection, schedule: Q04DX003 (ip), vehicle: saline sonified) 109 % of control. The T/C (dose: 12.5 mg/kg/injection, schedule: Q01DX009 (ip), vehicle: saline with Tween-80) was 100 % of control and the T/C (dose: 12.5 mg/kg/injection, schedule: Q04DX003 (ip), vehicle: saline sonified) was 118 % of control.

For `CC(C)(C)CSc1ccccc1SCC(C)(C)C`, the T/C reads like this: (dose: 50.0 mg/kg/injection, schedule: Q04DX002 (ip), vehicle: saline with Tween-80) 107 % of control; (dose: 100.0 mg/kg/injection, schedule: Q04DX002 (ip), vehicle: saline with Tween-80) 98 % of control; (dose: 200.0 mg/kg/injection, schedule: Q04DX002 (ip), vehicle: saline with Tween-80) 93 % of control.

With `CCc1nn2c(=O)nc(Oc3ccccc3)nc2s1`, the T/C was 101 % of control under setting [1], 106 % of control under setting [2] and 98 % of control under setting [3].

On to `CC(=O)NCC(S)c1ccc(Cl)cc1` (stereo not given), for which the T/C is 118 % of control (dose: 100.0 mg/kg/injection, schedule: Q04DX003 (ip), vehicle: saline with Tween-80); 95 % of control (dose: 200.0 mg/kg/injection, schedule: Q04DX003 (ip), vehicle: saline with Tween-80); 90 % of control (dose: 400.0 mg/kg/injection, schedule: Q04DX003 (ip), vehicle: saline with Tween-80).

Take `C=CCOCCC(=O)OCC=C`: the T/C was 104 % of control (dose: 12.0 mg/kg/injection, schedule: Q01DX001 (ip), vehicle: Klucel (hydroxypropylcellulose) (HPC)); 100 % of control under setting [5]; 100 % of control (dose: 25.0 mg/kg/injection, schedule: Q04DX003 (ip), vehicle: Klucel (hydroxypropylcellulose) (HPC)); 86 % of control under setting [6]; 104 % of control (dose: 50.0 mg/kg/injection, schedule: Q04DX003 (ip), vehicle: Klucel (hydroxypropylcellulose) (HPC)); 86 % of control and 100 % of control (dose: 100.0 mg/kg/injection, schedule: Q04DX003 (ip), vehicle: Klucel (hydroxypropylcellulose) (HPC)).

For the compound `O=C(Nc1ncccn1)C12CC3CC(CC(C3)C1)C2`, the T/C runs as follows: under setting [1], 88 % of control; under setting [2], 96 % of control; under setting [3], 93 % of control.

As for `CN1CCN(C)P1c1ccccc1`, the T/C by setting is: under setting [1], 109 % of control; under setting [2], 112 % of control; under setting [3], 110 % of control.

The values above are taken from PubChem BioAssay AID328 (DTP/NCI, 2004).
